Reference: patent publication US20150274719A1, “AMINO-SUBSTITUTED IMIDAZO[1,2-A]PYRIDINECARBOXAMIDES AND THEIR USE” (BAYER PHARMA AKTIENGESELLSCHAFT, priority 2012, published 2015)

Biological target: T1, recombinant guanylate cyclase reporter cell line (Rattus norvegicus, UniProt P19686+P20595)
T1 construct: expressed in transfected cells; host or cells: recombinant reporter cell line
T1 sequence (P19686 1-690): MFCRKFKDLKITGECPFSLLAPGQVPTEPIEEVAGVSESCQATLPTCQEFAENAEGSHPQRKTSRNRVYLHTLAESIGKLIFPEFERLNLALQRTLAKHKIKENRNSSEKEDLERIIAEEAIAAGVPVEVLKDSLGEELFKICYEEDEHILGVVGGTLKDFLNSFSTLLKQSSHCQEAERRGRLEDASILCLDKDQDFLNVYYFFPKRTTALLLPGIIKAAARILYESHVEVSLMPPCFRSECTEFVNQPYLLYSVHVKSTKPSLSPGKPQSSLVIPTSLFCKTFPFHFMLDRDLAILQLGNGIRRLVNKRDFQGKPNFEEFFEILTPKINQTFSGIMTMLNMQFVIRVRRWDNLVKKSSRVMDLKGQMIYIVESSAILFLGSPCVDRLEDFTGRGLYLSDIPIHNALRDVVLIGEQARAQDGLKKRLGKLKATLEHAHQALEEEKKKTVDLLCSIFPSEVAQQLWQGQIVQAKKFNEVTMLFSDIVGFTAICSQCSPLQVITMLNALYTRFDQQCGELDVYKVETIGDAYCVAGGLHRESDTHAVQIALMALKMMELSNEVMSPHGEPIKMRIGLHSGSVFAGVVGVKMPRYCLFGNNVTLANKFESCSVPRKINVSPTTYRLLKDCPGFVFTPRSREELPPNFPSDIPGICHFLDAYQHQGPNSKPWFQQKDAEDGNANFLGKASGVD
T1 sequence (P20595 1-619): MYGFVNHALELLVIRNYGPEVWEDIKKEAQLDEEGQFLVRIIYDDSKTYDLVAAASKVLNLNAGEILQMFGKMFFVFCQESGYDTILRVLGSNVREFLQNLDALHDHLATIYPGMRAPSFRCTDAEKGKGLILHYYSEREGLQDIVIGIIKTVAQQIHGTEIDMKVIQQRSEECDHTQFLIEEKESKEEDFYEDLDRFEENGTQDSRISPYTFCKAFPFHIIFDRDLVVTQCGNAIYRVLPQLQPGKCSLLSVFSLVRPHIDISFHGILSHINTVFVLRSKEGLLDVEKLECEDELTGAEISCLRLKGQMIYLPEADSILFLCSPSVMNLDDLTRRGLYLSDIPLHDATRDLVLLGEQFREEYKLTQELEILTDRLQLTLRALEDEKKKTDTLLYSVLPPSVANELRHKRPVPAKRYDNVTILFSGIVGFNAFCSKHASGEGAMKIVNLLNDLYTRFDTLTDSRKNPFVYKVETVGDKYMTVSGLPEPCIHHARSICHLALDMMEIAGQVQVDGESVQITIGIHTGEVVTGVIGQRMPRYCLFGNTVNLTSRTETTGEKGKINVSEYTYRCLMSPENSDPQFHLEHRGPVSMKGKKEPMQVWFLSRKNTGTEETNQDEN
Assay: Action on recombinant guanylate cyclase reporter cell line
Format: cell-based
Details: in some cases mean values from individual determinations
How it was run: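 Read-out: MEC (minimal effective concentration) in cells. Reporter line carries recombinant sGC. Some values are averages of single runs.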

MEC (minimal effective concentration) [µM]	Compound
3.00	Cc1cc(OCc2c(F)cccc2F)c2nc(C)c(C(=O)NCC(N)c3ccc4c(c3)OCCO4)n2c1 (racemic) [Example 371, rac-N-[2-amino-2-(2,3-dihydro-1,4-benzodioxin-6-yl)ethyl]-8-[(2,6-difluorobenzyl)oxy]-2,6-dimethylimidazo[1,2-a]pyridine-3-carboxamide]
3.00	Cc1cc(OCc2c(F)cccc2F)c2nc(C)c(C(=O)NCC(N)c3ccc4ncccc4c3)n2c1 (racemic) [Example 372, rac-N-[2-amino-2-(quinolin-6-yl)ethyl]-8-[(2,6-difluorobenzyl)oxy]-2,6-dimethylimidazo[1,2-a]pyridine-3-carboxamide]
3.00	Cc1cc(OCc2c(F)cccc2F)c2nc(C)c(C(=O)NCC(N)c3csc4ccccc34)n2c1 (racemic) [Example 373, rac-N-[2-amino-2-(1-benzothiophen-3-yl)ethyl]-8-[(2,6-difluorobenzyl)oxy]-2,6-dimethylimidazo[1,2-a]pyridine-3-carboxamide]
1.00	Cc1cc(OCc2c(F)cccc2F)c2nc(C)c(C(=O)NCC(N)c3cc(F)c(F)c(F)c3)n2c1 (racemic) [Example 374, rac-N-[2-amino-2-(3,4,5-trifluorophenyl)ethyl]-8-[(2,6-difluorobenzyl)oxy]-2,6-dimethylimidazo[1,2-a]pyridine-3-carboxamide]
3.00	Cc1cc(OCc2c(F)cccc2F)c2nc(C)c(C(=O)NCC(N)c3cccc(OC(F)F)c3)n2c1 (racemic) [Example 375, rac-N-{2-amino-2-[3-(difluoromethoxy)phenyl]ethyl}-8-[(2,6-difluorobenzyl)oxy]-2,6-dimethylimidazo[1,2-a]pyridine-3-carboxamide]
3.00	Cc1cc(OCc2c(F)cccc2F)c2nc(C)c(C(=O)NCC(N)c3cccc(C(F)(F)F)c3)n2c1 (racemic) [Example 376, rac-N-{2-amino-2-[3-(trifluoromethyl)phenyl]ethyl}-8-[(2,6-difluorobenzyl)oxy]-2,6-dimethylimidazo[1,2-a]pyridine-3-carboxamide]
3.00	Cc1cc(OCc2c(F)cccc2F)c2nc(C)c(C(=O)NCC(N)c3cccc(OC(F)(F)F)c3)n2c1 (racemic) [Example 377, rac-N-{2-amino-2-[3-(trifluoromethoxy)phenyl]ethyl}-8-[(2,6-difluorobenzyl)oxy]-2,6-dimethylimidazo[1,2-a]pyridine-3-carboxamide]

Continued, compound first:

Compound	MEC (minimal effective concentration) [µM]
CCCC(C)(N)CNC(=O)c1c(C)nc2c(OCc3ccccc3)cc(C)cn12 (racemic) [Example 340, rac-N-(2-amino-2-methylpentyl)-8-(benzyloxy)-2,6-dimethylimidazo[1,2-a]pyridine-3-carboxamide]	1.00
Cc1cc(OCc2c(F)cccc2F)c2nc(C)c(C(=O)NC3C(N)C3(C)C)n2c1 (racemic) [Example 341, rac-N-(3-amino-2,2-dimethylcyclopropyl)-8-[(2,6-difluorobenzyl)oxy]-2,6-dimethylimidazo[1,2-a]pyridine-3-carboxamide (racemate)]	0.30
Cc1cc(OCc2c(F)cccc2F)c2nc(C)c(C(=O)NC3CCC4NCCC43)n2c1 (racemic) [Example 342, rac-8-[(2,6-Difluorobenzyl)oxy]-2,6-dimethyl-N-(octahydrocyclopenta[b]pyrrol-4-yl)imidazo[1,2-a]pyridine-3-carboxamide]	1.00
CCCC(C)(N)CNC(=O)c1c(C)nc2c(OCc3ccccc3Cl)cc(C)cn12 (racemic) [Example 343, rac-N-(2-amino-2-methylpentyl)-8-[(2-chlorobenzyl)oxy]-2,6-dimethylimidazo[1,2-a]pyridine-3-carboxamide]	1.00
Cc1cc(OCc2c(F)cccc2F)c2nc(C)c(C(=O)NCC3CN(Cc4ccccc4)CCO3)n2c1 (racemic) [Example 344, rac-N-[(4-benzylmorpholin-2-yl)methyl]-8-[(2,6-difluorobenzyl)oxy]-2,6-dimethylimidazo[1,2-a]pyridine-3-carboxamide]	1.00
Cc1cc(OCc2c(F)cccc2F)c2nc(C)c(C(=O)NCC3CNCCO3)n2c1 (racemic) [Example 345, rac-8-[(2,6-Difluorobenzyl)oxy]-2,6-dimethyl-N-(morpholin-2-ylmethyl)imidazo[1,2-a]pyridine-3-carboxamide]	1.00
Cc1cc(OCc2c(F)cccc2F)c2nc(C)c(C(=O)NC34CCC3CNC4)n2c1 (racemic) [Example 346, rac-N-(3-azabicyclo[3.2.0]hept-1-yl)-8-[(2,6-difluorobenzyl)oxy]-2,6-dimethylimidazo[1,2-a]pyridine-3-carboxamide]	1.00
Cc1cc(OCc2c(F)cccc2F)c2nc(C)c(C(=O)NC3CNCC3F)n2c1 (racemic) [Example 347, rac-8-[(2,6-Difluorobenzyl)oxy]-N-(4-fluoropyrrolidin-3-yl)-2,6-dimethylimidazo[1,2-a]pyridine-3-carboxamide]	1.00
CCCC(C)(N)CNC(=O)c1c(C)nc2c(OCc3cccc(F)c3)cc(C)cn12 (racemic) [Example 348, rac-N-(2-amino-2-methylpentyl)-8-[(3-fluorobenzyl)oxy]-2,6-dimethylimidazo[1,2-a]pyridine-3-carboxamide]	1.00
Cc1cc(OCc2c(F)cccc2F)c2nc(C)c(C(=O)NCC(C)(N)COc3ccc(F)c(F)c3)n2c1 (racemic) [Example 350, rac-N-[2-amino-3-(3,4-difluorophenoxy)-2-methylpropyl]-8-[(2,6-difluorobenzyl)oxy]-2,6-dimethylimidazo[1,2-a]pyridine-3-carboxamide]	1.00
CCCC(C)(N)CNC(=O)c1c(C)nc2c(OCc3c(F)cccc3OC)cc(C)cn12 (racemic) [Example 351, rac-N-(2-amino-2-methylpentyl)-8-[(2-fluoro-6-methoxybenzyl)oxy]-2,6-dimethylimidazo[1,2-a]pyridine-3-carboxamide]	3.00
Cc1cc(OCc2c(F)cccc2F)c2nc(C)c(C(=O)NCC3CSCCN3)n2c1 (racemic) [Example 366, rac-8-[(2,6-difluorobenzyl)oxy]-2,6-dimethyl-N-(thiomorpholin-3-ylmethyl)imidazo[1,2-a]pyridine-3-carboxamide]	0.10
Cc1cc(OCc2c(F)cccc2F)c2nc(C)c(C(=O)NCC(N)c3cccc(OCCO)c3)n2c1 (racemic) [Example 367, rac-N-{2-amino-2-[3-(2-hydroxyethoxy)phenyl]ethyl}-8-[(2,6-difluorobenzyl)oxy]-2,6-dimethylimidazo[1,2-a]pyridine-3-carboxamide]	3.00
COc1ccc(CC(C)(N)CNC(=O)c2c(C)nc3c(OCc4c(F)cccc4F)cc(C)cn23)cc1 (racemic) [Example 368, rac-N-[2-amino-3-(4-methoxyphenyl)-2-methylpropyl]-8-[(2,6-difluorobenzyl)oxy]-2,6-dimethylimidazo[1,2-a]pyridine-3-carboxamide]	0.10
Cc1cc(OCc2c(F)cccc2F)c2nc(C)c(C(=O)NCC(N)c3ccc(C)o3)n2c1 (racemic) [Example 369, rac-N-[2-amino-2-(5-methyl-2-furyl)ethyl]-8-[(2,6-difluorobenzyl)oxy]-2,6-dimethylimidazo[1,2-a]pyridine-3-carboxamide]	0.30
Cc1cc(OCc2c(F)cccc2F)c2nc(C)c(C(=O)NCC(N)c3cnn(C)c3)n2c1 (racemic) [Example 370, rac-N-[2-amino-2-(1-methyl-1H-pyrazol-4-yl)ethyl]-8-[(2,6-difluorobenzyl)oxy]-2,6-dimethylimidazo[1,2-a]pyridine-3-carboxamide]	3.00
